Consider one compound from patent US7485651B2, “Compounds with activity on muscarinic receptors” (Acadia Pharmaceuticals, Inc., priority 1998, dated 2009).

Experiment [1] addresses T1, m3 receptor (Homo sapiens, UniProt P20309).
T1 construct: expressed in transfected cells; host or cells: NIH 3T3 (ATCC CRL 1658)
The experiment can be described thus: R-SAT / NIH 3T3 cells transfected with m3 muscarinic receptor. It counts as cell-based. From the text: A particularly convenient functional assay system is the receptor selection and amplification assay disclosed in U.S. Pat. No. 5,707,798 describing a method of screening for bioactive compounds by utilizing the ability of cells transfected with receptor DNA, e.g. coding for the different muscarinic subtypes, to amplify in the presence of a ligand of the receptor. Cell amplification is detected as increased levels of a marker also expressed by the cells.
(§1) Transfection of cells with muscarinic receptor DNAs (general procedure) NIH 3T3 cells (available from the American Type Culture Collection as ATCC CRL 1658) were grown at 37° C. in a humidified atmosphere (5% CO2) incubator in Dulbecco's modified Eagle's medium (DMEM) supplemented with 4.5 g/l glucose, 4 mM glutamine, 50 units/m1 penicillin, 50 units/m1 streptomycin (available from Advanced Biotechnologies, Inc., Gaithersburg, Md.) and 10% calf serum (available from Sigma, St. Louis, […].). The cells were treated with trypsin-EDTA, spun down and plated at 2×10^6 per 15 cm dish in 20 m1 of DMEM containing 10% calf serum.
(§2) The m1-m5 muscarinic receptor subtypes were cloned substantially as described by Bonner et al., Science 237, 1987, p. 527, and Bonner et al., Neuron 1, 1988, p. 403. For the m2 and m4 receptors, the cells were co-transfected with DNA encoding a chimera between the Gq protein and the five carboxy-terminal amino acids of the Gi protein (the Gq-i5 construct is described by Conklin et al., Nature 363, 1993, p.274).
On day one, the cells were transfected using the Superfect transfection reagent (available from Qiagen, Valencia, Calif.) in accordance with the manufacturer's instructions. Receptor DNA, β-gal DNA (pSI-β-galactosidase available from Promega, Madison, Wis.), chimeric Gq-i5 DNA for the m2 and m4 receptor subtype assays, and salmon sperm DNA (available from Sigma, St. Louis, […].) as filler to a total of 20 μg DNA was added per plate. Prior to addition to the plates, 60 μl Superfect was added to the DNA and mixed thoroughly by pipetting up and down several times. The mixture was incubated at room temperature for 10-15 minutes. The media were aspirated, and 12 ml fresh DMEM containing 10% calf serum and 50 units/m1 penicillin/streptomycin was added to the plates. The DNA-Superfect solution was mixed once more with a pipette and added to the plate which was swirled to distribute the DNA mixture evenly over the surface. The cells were incubated overnight at 37° C. and 5% CO2. After incubation, the media were aspirated and the plates were rinsed once with a 15 m1 volume of Hank's Buffered Saline. The plates were swirled to ensure thorough rinsing. 20 m1 fresh DMEM supplemented with 10% calf serum and 50 units/m1 penicillin/streptomycin was added to the plates. The cells were incubated for 24-48 hours until the plates were 100% confluent.
Assay of NIH 3T3 cells transfected with muscarinic receptor subtypes (general procedure) DMEM containing 2% Cyto-SF3 was heated at 37° C. in a water bath under sterile conditions. Sterile working stock solutions of test compounds to be assayed were prepared by diluting the compounds in DMEM to 8× the final concentration for testing. The compound (carbachol) to be included in the assay as a positive control was also diluted in DMEM to 8× the final concentration. 50 μL of the DMEM containing 2% Cyto-SF3 was added to each well of 96-well microtiter plates under sterile conditions. Then, 16 of compound solutions were added to the top wells of the plates, and dilution of the solutions was performed by taking 16 μl of the compound solutions from the top wells and pipetting them into the next row of wells. This procedure was repeated with each subsequent row of wells, except that 50 μl medium alone was added to the baseline control wells (the wells that contain medium and cells, but not test compounds) and plate control wells (wells containing medium, but not test compounds and cells). […]

Experiment [2] addresses T2, m2 receptor (Homo sapiens, UniProt P08172).
T2 construct: expressed in transfected cells; host or cells: NIH 3T3 (ATCC CRL 1658)
T2 sequence (P08172 1-466): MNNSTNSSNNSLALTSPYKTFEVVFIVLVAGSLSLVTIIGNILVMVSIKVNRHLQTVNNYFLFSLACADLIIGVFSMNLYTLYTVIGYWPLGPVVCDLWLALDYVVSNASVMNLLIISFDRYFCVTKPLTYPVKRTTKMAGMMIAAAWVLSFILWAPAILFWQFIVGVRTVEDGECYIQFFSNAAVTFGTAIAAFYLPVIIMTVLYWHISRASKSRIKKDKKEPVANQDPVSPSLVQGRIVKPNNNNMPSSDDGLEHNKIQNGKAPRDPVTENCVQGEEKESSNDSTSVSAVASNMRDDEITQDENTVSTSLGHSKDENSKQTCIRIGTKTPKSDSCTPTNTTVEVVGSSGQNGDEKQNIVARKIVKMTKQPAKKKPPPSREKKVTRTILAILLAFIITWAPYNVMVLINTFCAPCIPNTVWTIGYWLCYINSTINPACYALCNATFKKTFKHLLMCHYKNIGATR
As to the kind of experiment: NIH 3T3 cells transfected with m2 muscarinic receptor and Gq-i5. It counts as cell-based. Here is the method: as §1, §2
On day one, the cells were transfected using the Superfect transfection reagent (available from Qiagen, Valencia, Calif.) in accordance with the manufacturer's instructions. […]

T1 sequence (P20309 whole entry): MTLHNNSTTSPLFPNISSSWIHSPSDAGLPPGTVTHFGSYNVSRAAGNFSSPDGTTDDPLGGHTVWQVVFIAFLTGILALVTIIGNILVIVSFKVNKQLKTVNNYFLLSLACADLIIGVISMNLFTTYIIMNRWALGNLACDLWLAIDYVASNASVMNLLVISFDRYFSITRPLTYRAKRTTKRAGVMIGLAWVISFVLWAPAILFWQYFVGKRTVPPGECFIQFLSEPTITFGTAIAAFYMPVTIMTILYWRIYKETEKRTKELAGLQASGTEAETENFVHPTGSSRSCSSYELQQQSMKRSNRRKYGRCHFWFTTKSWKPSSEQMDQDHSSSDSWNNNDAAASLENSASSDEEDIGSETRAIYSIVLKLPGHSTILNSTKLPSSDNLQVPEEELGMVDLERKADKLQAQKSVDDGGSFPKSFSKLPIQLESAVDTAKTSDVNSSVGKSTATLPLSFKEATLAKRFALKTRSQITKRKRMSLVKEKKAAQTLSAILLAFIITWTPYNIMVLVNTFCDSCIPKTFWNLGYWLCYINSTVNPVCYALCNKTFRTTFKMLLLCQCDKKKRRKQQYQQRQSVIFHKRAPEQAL

`CCCCC1CCN(CCCC(=O)c2ccccc2C)CC1` [Compound A, 4-n-Butyl-1-[4-(2-methylphenyl)-4-oxo-1-butyl]piperidine]: the “agonist activity at the m3 receptor” value in experiment [1] was “only activated the m1 receptor subtype”. Besides, the Emax at 1.5 µM in experiment [1] (NIH3T3, m3, compound at 1.5 μM, maximum = response to 10 μM carbachol, read-out: Cellular response as a percentage of the maximum response of the cells) is 7%. For the same compound, the “antagonism of carbachol-induced responses” value in experiment [1] (m3) and in experiment [2] was “not an antagonist” each time.
